{"source": "patent US20240245670A1", "about": "“DOSING REGIMEN AND PHARMACEUTICAL COMBINATION COMPRISING 3-(1-OXOISOINDOLIN-2-YL)PIPERIDINE-2,6-DIONE DERIVATIVES” (Novartis AG, priority 2018, published 2024)", "key": {"TMEM97": {"biological_target": "T1, TMEM97 (Homo sapiens, UniProt Q5BJF2)", "T1 construct": "endogenous in cells; host or cells: 293T", "T1 sequence (Q5BJF2 whole entry)": "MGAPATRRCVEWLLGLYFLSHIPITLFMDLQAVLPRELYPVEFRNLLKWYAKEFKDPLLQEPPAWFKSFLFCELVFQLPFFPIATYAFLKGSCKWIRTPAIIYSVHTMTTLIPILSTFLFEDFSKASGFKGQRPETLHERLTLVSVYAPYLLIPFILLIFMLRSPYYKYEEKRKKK", "test": "Whole cell proteomic analysis in 293T cells", "format": "cell-based", "conditions": "nearly 8000 proteins identified", "procedure": "Other potential degradation targets of I-57 were evaluated in 293T cells using whole cell proteomic analysis. […] Subsequent analyses have confirmed that FIZ1 is degraded by about 50% at a 10 μM concentration of I-57 ([I-57 Investigator's Brochure]). […] FIZ1 is expressed in the neural retina where it transcriptionally represses the differentiation of photoreceptors. FIZ1 is also expressed in non-ocular tissues with unknown function."}, "rat IKZF2": {"biological_target": "T2, rat IKZF2 (Rattus norvegicus, UniProt A0A0G2JVA9)", "T2 construct": "assessed in primary PBMCs obtained from rabbit, dog, pig, cynomolgus monkey, and human, and in primary splenocytes of mouse and rat; endogenous in cells; host or cells: primary rat splenocytes", "T2 sequence (A0A0G2JVA9 1-467)": "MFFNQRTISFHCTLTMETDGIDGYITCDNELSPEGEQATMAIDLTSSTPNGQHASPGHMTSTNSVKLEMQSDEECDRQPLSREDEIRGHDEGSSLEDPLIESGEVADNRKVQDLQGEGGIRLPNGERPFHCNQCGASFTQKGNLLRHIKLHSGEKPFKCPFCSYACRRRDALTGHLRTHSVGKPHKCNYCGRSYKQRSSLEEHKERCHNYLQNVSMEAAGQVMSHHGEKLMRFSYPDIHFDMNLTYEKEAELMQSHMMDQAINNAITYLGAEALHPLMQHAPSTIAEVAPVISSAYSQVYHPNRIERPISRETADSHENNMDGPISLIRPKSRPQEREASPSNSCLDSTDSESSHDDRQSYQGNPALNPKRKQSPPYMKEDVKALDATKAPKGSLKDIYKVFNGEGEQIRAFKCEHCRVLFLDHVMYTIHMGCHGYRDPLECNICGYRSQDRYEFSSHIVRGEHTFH", "T2 sequence (Q56AP7 whole entry partner)": "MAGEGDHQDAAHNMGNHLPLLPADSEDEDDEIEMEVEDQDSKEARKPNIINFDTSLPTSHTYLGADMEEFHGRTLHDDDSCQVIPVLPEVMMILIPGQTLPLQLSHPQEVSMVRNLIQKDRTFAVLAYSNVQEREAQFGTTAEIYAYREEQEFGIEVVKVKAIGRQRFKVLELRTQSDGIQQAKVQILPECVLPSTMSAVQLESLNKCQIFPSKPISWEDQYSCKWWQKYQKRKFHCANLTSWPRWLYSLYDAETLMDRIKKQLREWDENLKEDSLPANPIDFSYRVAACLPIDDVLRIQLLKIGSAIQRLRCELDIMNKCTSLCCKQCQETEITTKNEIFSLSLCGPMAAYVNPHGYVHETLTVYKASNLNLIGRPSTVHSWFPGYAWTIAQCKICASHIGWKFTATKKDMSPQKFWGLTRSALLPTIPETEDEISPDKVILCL", "test": "IKZF2 degradation, species relevance (rat)", "procedure": "(§1) The starting dose of I-57 selected for this study is supported by 4-week GLP toxicology studies performed in cynomolgus monkeys. […] GLP toxicity studies identified 30 mg/kg as the HNSTD in monkey and supported a starting dose up to 100 mg QD in human (BSA scaled HED and using a safety factor of 6). The selected dose of 20 mg is anticipated to result in a significant but sub-maximal IKZF2 degradation in human PBMCs and TILs (50-90%), based on PK/PD modeling of I-57 exposure and IKZF2 degradation in cynomolgus PBMCs. More IKZF2 degradation may be required to change downstream biology. Therefore, 20 mg is considered safe. Escalation from this starting dose will facilitate the determination of the minimal required dose which provides optimal IKZF2 degradation to impact downstream biological activity."}, "primary human Tregs": {"test_system": "primary human Tregs", "test": "Suppressive potency of Treg cells expanded in vitro in the presence of compound (FIG. 2C)", "format": "cell-based", "description": "FIG. 2C is a bar graph showing the suppressive potency of Treg cells expanded in the presence of Compound I-57.\nAlthough the specific transcriptional targets of IKZF2 remain to be defined, IKZF2 binds to and represses transcription from the IL-2 promoter region (Baine 2013). […] Finally, an in vitro assay recapitulating hallmarks of T cell dysfunction/exhaustion, by sequential TCR stimulation of isolated primary human T cells, was used to test the hypothesis that […] would rescue the exhausted phenotype and enhance Teff cell activity. […] In addition to IKZF1, other known cereblon substrates including translation termination factor G1 to S phase transition 1 (GSPT1) are not degraded by I-57 (FIG. 1)."}, "[1]": {"test": "PK after repeated daily oral dosing in immunized cynomolgus monkeys (Table 15)", "format": "in vivo, cynomolgus monkey", "conditions": "for AUC0-24 (unbound) / AUC0-24/D (unbound) / Cmax (unbound) / Cmax/D (unbound): cynomolgus monkey", "procedure": "The PK/PD relationship of I-57 was further examined in cynomolgus monkeys after repeated daily oral doses of 0.1 and 3 mg/kg. In this study, a cohort of animals were initially immunized with an antigen-adjuvant mixture (KLH/Squalene). The experiment was designed to assess the effect of I-57 exposure, and the resulting IKZF2 degradation, on immune response during immunization to test the hypothesis that IKZF2 degradation would result in increased proliferation of stimulated T-cells. In the experiment, daily I-57 oral treatment was initiated 5 days after immunization. An immunization booster dose was administered on day 15. I-57 plasma concentration and IKZF2 expression (as determined by flow cytometry) in FOXP3+ T cells from PBMCs were determined (FIG. 9A and FIG. 9B).\nExposure levels for 3 mg/kg in cynomolgus monkeys are anticipated to correspond to ˜100 mg QD in humans."}, "human recombinant CYPs": {"test_system": "human recombinant CYPs", "test": "Assessment of enzymes involved in oxidative metabolism using human recombinant CYPs in vitro", "format": "in vitro ADME", "conditions": "preliminary assessment", "procedure": "In vivo in the dog, very minor amounts of the N-dealkylation product and products derived from hydrolysis of the glutarimide moiety were detected in plasma. While the contribution of CYP-mediated oxidative metabolism to systemic clearance is unknown, a preliminary assessment of the enzymes involved was conducted using human recombinant CYPs in vitro."}, "[2]": {"test": "PK after single oral dose in cynomolgus monkey (FIG. 4, FIG. 5, Table 13)", "format": "in vivo", "conditions": "for AUC24 h (unbound) / AUC24 h/Dose (unbound) / Cmax (unbound) / Cmax/Dose (unbound): cynomolgus monkey, unbound exposure, n = 3, mean ± SD", "procedure": "FIG. 4 is a graph showing the PK/PD relationship in the cynomolgus monkey after a single oral of 0.01, 0.1 or 1 mg/kg of Compound I-57.\nFIG. 5. is a graph showing plasma concentration in the cynomolgus monkey of Compound I-57 and IKZF2 expression (as determined by flow cytometry) in FOXP3+ T cells from PBMCs after a single oral of 0.01, 0.1 or 1 mg/kg of Compound I-57.\nThe PK/PD relationship of I-57 was examined in cynomolgus monkeys after a single oral dose of 0.01, 0.1 or 1 mg/kg. I-57 plasma concentration and IKZF2 expression (as determined by flow cytometry) in FOXP3+ T cells from PBMCs were determined (FIG. 4 and FIG. 5)."}, "cynomolgus monkeys": {"test_system": "cynomolgus monkeys", "test": "4-week GLP toxicology study in cynomolgus monkeys", "format": "in vivo", "procedure": "as §1"}, "[3]": {"test": "In vitro metabolism in liver microsomes and hepatocytes across species", "format": "in vitro ADME"}, "[4]": {"conditions": "Day 5, Group 2 (only I-57), 0.1 mg/kg/day oral"}, "[5]": {"conditions": "Day 5, Group 4 (I-57 + KLH + adjuvant), 0.1 mg/kg/day oral"}, "[6]": {"conditions": "Day 5, Group 5 (I-57 + KLH + adjuvant), 3 mg/kg/day oral"}, "[7]": {"conditions": "Day 29, Group 2 (only I-57), 0.1 mg/kg/day oral"}, "[8]": {"conditions": "Day 29, Group 4 (I-57 + KLH + adjuvant), 0.1 mg/kg/day oral"}, "[9]": {"conditions": "Day 29, Group 5 (I-57 + KLH + adjuvant), 3 mg/kg/day oral"}}}
{"smiles": "O=C1CCC(N2Cc3cc(C4CCN(Cc5ccccc5)CC4)ccc3C2=O)C(=O)N1", "note": "(stereo not drawn) [Compound I-57, 3-(5-(1-benzylpiperidin-4-yl)-1-oxoisoindolin-2-yl)piperidine-2,6-dione]", "values": [{"measurement": "TMEM97 degradation (proteomics)", "setting": "TMEM97", "result": "degraded"}, {"measurement": "degradation of rat IKZF2", "setting": "rat IKZF2", "result": "not rat"}, {"measurement": "proportion of IKZF2-expressing cells", "setting": "primary human Tregs", "result": "remained unchanged"}, {"measurement": "AUC0-24 (unbound)", "setting": "[1]; [4]", "result": 56.8, "unit": "ng·h/mL"}, {"measurement": "AUC0-24/D (unbound)", "setting": "[1]; [4]", "result": "567 (ng · h/mL)/(mg/kg)"}, {"measurement": "Cmax (unbound)", "setting": "[1]; [4]", "result": 7.10, "unit": "ng/mL"}, {"measurement": "Cmax/D (unbound)", "setting": "[1]; [4]", "result": "71.0 (ng/mL)/(mg/kg)"}, {"measurement": "AUC0-24 (unbound)", "setting": "[1]; [5]", "result": 63.5, "unit": "ng·h/mL"}, {"measurement": "AUC0-24/D (unbound)", "setting": "[1]; [5]", "result": "634 (ng · h/mL)/(mg/kg)"}, {"measurement": "Cmax (unbound)", "setting": "[1]; [5]", "result": 11.0, "unit": "ng/mL"}, {"measurement": "Cmax/D (unbound)", "setting": "[1]; [5]", "result": "110 (ng/mL)/(mg/kg)"}, {"measurement": "AUC0-24 (unbound)", "setting": "[1]; [6]", "result": 2840, "unit": "ng·h/mL"}, {"measurement": "AUC0-24/D (unbound)", "setting": "[1]; [6]", "result": "946 (ng · h/mL)/(mg/kg)"}, {"measurement": "Cmax (unbound)", "setting": "[1]; [6]", "result": 523, "unit": "ng/mL"}, {"measurement": "Cmax/D (unbound)", "setting": "[1]; [6]", "result": "175 (ng/mL)/(mg/kg)"}, {"measurement": "AUC0-24 (unbound)", "setting": "[1]; [7]", "result": 78.1, "unit": "ng·h/mL"}, {"measurement": "AUC0-24/D (unbound)", "setting": "[1]; [7]", "result": "782 (ng · h/mL)/(mg/kg)"}, {"measurement": "Cmax (unbound)", "setting": "[1]; [7]", "result": 13.1, "unit": "ng/mL"}, {"measurement": "Cmax/D (unbound)", "setting": "[1]; [7]", "result": "131 (ng/mL)/(mg/kg)"}, {"measurement": "AUC0-24 (unbound)", "setting": "[1]; [8]", "result": 96.4, "unit": "ng·h/mL"}, {"measurement": "AUC0-24/D (unbound)", "setting": "[1]; [8]", "result": "965 (ng · h/mL)/(mg/kg)"}, {"measurement": "Cmax (unbound)", "setting": "[1]; [8]", "result": 18.0, "unit": "ng/mL"}, {"measurement": "Cmax/D (unbound)", "setting": "[1]; [8]", "result": "180 (ng/mL)/(mg/kg)"}, {"measurement": "AUC0-24 (unbound)", "setting": "[1]; [9]", "result": 3460, "unit": "ng·h/mL"}, {"measurement": "AUC0-24/D (unbound)", "setting": "[1]; [9]", "result": "1150 (ng · h/mL)/(mg/kg)"}, {"measurement": "Cmax (unbound)", "setting": "[1]; [9]", "result": 504, "unit": "ng/mL"}, {"measurement": "Cmax/D (unbound)", "setting": "[1]; [9]", "result": "169 (ng/mL)/(mg/kg)"}, {"measurement": "human dose anticipated to correspond to exposure levels", "setting": "[1]; exposure levels for 3 mg/kg in cynomolgus monkeys", "result": "~100", "unit": "mg QD"}, {"measurement": "enzyme primarily mediating oxidative metabolism", "setting": "human recombinant CYPs", "result": "CYP3A4"}, {"measurement": "AUC24 h (unbound)", "setting": "[2]; single oral dose 0.01 mg/kg", "result": "14.1 ± 4.72", "unit": "ng·h/mL"}, {"measurement": "AUC24 h/Dose (unbound)", "setting": "[2]; single oral dose 0.01 mg/kg", "result": "1410 ± 472 (ng · h/mL)/(mg/kg)"}, {"measurement": "Cmax (unbound)", "setting": "[2]; single oral dose 0.01 mg/kg", "result": "2.11 ± 0.69", "unit": "ng/mL"}, {"measurement": "Cmax/Dose (unbound)", "setting": "[2]; single oral dose 0.01 mg/kg", "result": "211 ± 69.1 (ng/mL)/(mg/kg)"}, {"measurement": "AUC24 h (unbound)", "setting": "[2]; single oral dose 0.1 mg/kg", "result": "102 ± 13.2", "unit": "ng·h/mL"}, {"measurement": "AUC24 h/Dose (unbound)", "setting": "[2]; single oral dose 0.1 mg/kg", "result": "1020 ± 136 (ng · h/mL)/(mg/kg)"}, {"measurement": "Cmax (unbound)", "setting": "[2]; single oral dose 0.1 mg/kg", "result": "13.4 ± 2.77", "unit": "ng/mL"}, {"measurement": "Cmax/Dose (unbound)", "setting": "[2]; single oral dose 0.1 mg/kg", "result": "134 ± 27.7 (ng/mL)/(mg/kg)"}, {"measurement": "AUC24 h (unbound)", "setting": "[2]; single oral dose 1 mg/kg", "result": "610 ± 236", "unit": "ng·h/mL"}, {"measurement": "AUC24 h/Dose (unbound)", "setting": "[2]; single oral dose 1 mg/kg", "result": "610 ± 236 (ng · h/mL)/(mg/kg)"}, {"measurement": "Cmax (unbound)", "setting": "[2]; single oral dose 1 mg/kg", "result": "102 ± 45.3", "unit": "ng/mL"}, {"measurement": "Cmax/Dose (unbound)", "setting": "[2]; single oral dose 1 mg/kg", "result": "102 ± 45.3 (ng/mL)/(mg/kg)"}, {"measurement": "dose proportionality of observed exposures", "setting": "[2]; single oral dose of 0.01, 0.1 or 1 mg/kg", "result": "slightly less than dose proportional"}, {"measurement": "supported starting dose in human (BSA scaled HED, safety factor of 6)", "setting": "cynomolgus monkeys; derived from monkey HNSTD", "result": "up to 100 mg QD"}, {"measurement": "HNSTD", "setting": "cynomolgus monkeys; monkey, 4-week GLP toxicity studies", "result": 30, "unit": "mg/kg"}, {"measurement": "metabolic stability", "setting": "[3]", "result": "very stable"}]}
